According to patent US9822120B2, “Protein kinase inhibitors” (Pharmascience Inc., priority 2013, dated 2017):

Legend:
[1] = target: human BTK kinase (hBTK) (Homo sapiens (Human), UniProt Q06187); test: Btk kinase inhibition assay, Method B (KinaseProfiler radiometric protein kinase assay, Eurofins); type: biochemical; details: [γ-33P-ATP], 40 minutes room temperature
Experimental: In vitro potency of selected compound was defined against human BTK kinase (hBTK) using KinaseProfiler radiometric protein kinase assays performed at Eurofins Pharma Discovery Services UK Limited.
hBTK kinase is diluted in buffer and all compounds were prepared to 50× final assay concentration in 100% DMSO. This working stock of the compound was added to the assay well as the first component in the reaction, followed by the remaining components as detailed in the assay protocol listed above. The reaction was initiated by the addition of the MgATP mix. The kinase reaction was performed at room temperature for 40 minutes in presence of 250 μM substrate, 10 mM MgAcetate, [γ-33P-ATP] (specific activity approx. 500 cpm/pmol, concentration as required) and variable test article concentrations. The ATP concentrations in the assays were with 15 μM of the apparent. The reaction was stopped by the addition of 3% phosphoric acid solution. 10 μL of the reaction is then spotted onto a P30 filtermat and washed three times for 5 minutes in 75 mM phosphoric acid and once in methanol prior to drying and scintillation counting. In addition positive control wells contain all components of the reaction, except the compound of interest; however, DMSO (at a final concentration of 2%) were included in these wells to control for solvent effects as well as blank wells contain all components of the reaction, with a reference inhibitor replacing the compound of interest. This abolishes kinase activity and establishes the base-line (0% kinase activity remaining). The potency of each compound was reported by estimating the EC50.

[2] = system: splenocytes; test: Splenic cell proliferation assay (anti-IgM stimulated, Cell Titer-Glo); type: cell-based; details: Splenocyte; CD1 mouse splenocytes, 1 h pre-treatment, 2.5 ug/ml anti-IgM F(ab')2 for 72 h; read-out: EC50 (nM), Inhibition of splenic cell proliferation
From the text: Cellular Assay Splenic Cell Proliferation Assay
Proliferation of splenocytes in response to anti-IgM can be blocked by inhibition of Btk. Splenocytes were obtained from 6 week old male CD1 mice (Charles River Laboratories Inc.). Mouse spleens were manually disrupted in PBS and filtered using a 70 um cell strainer followed by ammonium chloride red blood cell lysis. Cells were washed, resuspended in Splenocyte Medium (HyClone RPMI supplemented with 10% heat-inactivated FBS, 0.5× non-essential amino acids, 10 mM HEPES, 50 uM beta mercaptoethanol) and incubated at 37° C., 5% CO2 for 2 h to remove adherent cells. Suspension cells were seeded in 96 well plates at 50,000 cells per well and incubated at 37° C., 5% CO2 for 1 h. Splenocytes were pre-treated in triplicate with 10,000 nM curves of Formula I compounds for 1 h, followed by stimulation of cell proliferation with 2.5 ug/ml anti-IgM F(ab′)2 (Jackson ImmunoResearch) for 72 h. Cell proliferation was measured by Cell Titer-Glo Luminescent Assay (Promega). EC50 values (50% proliferation in the presence of compound as compared to vehicle treated controls) were calculated from dose response compound curves using GraphPad Prism Software.

[3] = target: histidine tagged recombinant human full-length Bruton Agammaglobulinemia Tyrosine Kinase (Btk) (Homo sapiens (Human), UniProt Q06187); test: Btk kinase inhibition assay, Method A (fluorescence polarization, KinEASE FP Fluorescein Green); type: biochemical; details: 10 μM ATP, 250 μM substrate, 60 minutes room temperature, Ki calculated from IC50 by Cheng-Prusoff equation
Experimental: Btk Kinase Inhibition Assays
Fluorescence polarization-based kinase assays were performed in 384 well-plate format using histidine tagged recombinant human full-length Bruton Agammaglobulinemia Tyrosine Kinase (Btk) and a modified protocol of the KinEASE™ FP Fluorescein Green Assay supplied from Millipore®. Kinase reaction were performed at room temperature for 60 minutes in presence of 250 μM substrate, 10 μM ATP and variable test article concentrations. The reaction was stopped with EDTA/kinease detection reagents. Phosphorylation of the substrate peptide was detected by fluorescence polarization measured with a Tecan 500 instrument. From the dose-response curve obtained, the IC50 was calculated using Graph Pad Prisms® using a non linear fit curve. The Km for ATP on each enzyme was experimentally determined and the Ki values calculated using the Cheng-Prusoff equation (see: Cheng Y, Prusoff W. H. (1973) Relationship between the inhibition constant (K1) and the concentration of inhibitor which causes 50% inhibition (I50) of an enzymatic reaction”. Biochem. Pharmacol. 22 (23): 3099-108). ki values are reported in Tables 2a and 2b: […]

Chain of histidine tagged recombinant human full-length Bruton Agammaglobulinemia Tyrosine Kinase (Btk) (Q06187 whole entry): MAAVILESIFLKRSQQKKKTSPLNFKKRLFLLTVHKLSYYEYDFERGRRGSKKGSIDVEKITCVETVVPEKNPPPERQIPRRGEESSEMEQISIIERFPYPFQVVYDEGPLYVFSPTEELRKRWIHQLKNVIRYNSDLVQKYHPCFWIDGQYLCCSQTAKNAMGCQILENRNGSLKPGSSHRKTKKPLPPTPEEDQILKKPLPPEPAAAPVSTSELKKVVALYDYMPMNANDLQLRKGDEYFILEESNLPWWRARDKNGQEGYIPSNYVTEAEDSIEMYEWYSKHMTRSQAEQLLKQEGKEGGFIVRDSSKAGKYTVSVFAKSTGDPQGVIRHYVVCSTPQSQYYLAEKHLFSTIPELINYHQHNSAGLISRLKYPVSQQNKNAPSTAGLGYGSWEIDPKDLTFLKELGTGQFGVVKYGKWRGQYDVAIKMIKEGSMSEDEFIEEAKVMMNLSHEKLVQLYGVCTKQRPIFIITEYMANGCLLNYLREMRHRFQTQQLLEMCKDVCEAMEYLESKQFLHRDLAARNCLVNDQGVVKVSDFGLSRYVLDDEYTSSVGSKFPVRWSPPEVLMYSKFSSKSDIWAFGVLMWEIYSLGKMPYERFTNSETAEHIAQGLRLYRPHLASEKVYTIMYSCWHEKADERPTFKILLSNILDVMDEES
Chain of human BTK kinase (hBTK) (Q06187 whole entry): as above

Row | SMILES | EC50 [1] | Ki [3] | EC50 [2]
1 | CC(C)c1nc(-c2ccc(Oc3cc(F)cc(OCc4ccc(CO)nc4)c3)cc2)c2c(N)nccn12 [Compound 35] | < 100 nM |  | < 100 nM
2 | Cc1ncc(COc2cc(F)cc(Oc3ccc(-c4nc(C5CCNCC5)n5ccnc(N)c45)cc3)c2)cn1 [Compound 30] | < 100 nM |  | < 100 nM
3 | Cc1ncc(COc2cc(F)cc(Oc3ccc(-c4nc([C@H]5C[C@@H](N6CCOCC6)C5)n5ccnc(N)c45)cc3)c2)cn1 [Compound 33] | < 100 nM |  | < 100 nM
4 | Cc1ncc(COc2cc(F)cc(Oc3ccc(-c4nc([C@@H]5CCCN(C6COC6)C5)n5ccnc(N)c45)cc3)c2)cn1 [Compound 34] | < 100 nM |  | < 100 nM
5 | Cc1ncc(COc2cc(F)cc(Oc3ccc(-c4nc([C@H]5C[C@@H](O)C5)n5ccnc(N)c45)cc3)c2)cn1 [Compound 29] | < 100 nM |  | < 100 nM
6 | CC(=O)N1CCC(c2nc(-c3ccc(Oc4cc(F)cc(OCc5cnc(C)nc5)c4)cc3)c3c(N)nccn23)CC1 [Compound 31] | < 100 nM |  | < 100 nM
7 | Cc1ccc(COc2cc(F)cc(Oc3ccc(-c4nc(C5CCCC5)n5ccnc(N)c45)cc3)c2)cn1 [Compound 5] |  | < 100 nM | < 100 nM
8 | C[C@]1(O)C[C@@H](c2nc(-c3ccc(Oc4cc(F)cc(OCc5ccccc5)c4)cc3)c3c(N)nccn32)C1 [Compound 25] |  | < 100 nM | < 100 nM
9 | Cc1ncc(COc2cc(F)cc(Oc3ccc(-c4nc(C5CCOCC5)n5ccnc(N)c45)cc3)c2)cn1 [Compound 9] |  | < 100 nM | < 100 nM
10 | Cc1ccc(COc2cc(F)cc(Oc3ccc(-c4nc(C(C)C)n5ccnc(N)c45)cc3)c2)cn1 [Compound 3] |  | < 100 nM | < 100 nM
11 | Cc1ncc(COc2cc(F)cc(Oc3ccc(-c4nc(C5(C)COC5)n5ccnc(N)c45)cc3)c2)s1 [Compound 15] |  | < 100 nM | < 100 nM
12 | Cc1ncc(COc2cc(F)cc(Oc3ccc(-c4nc(C5CNC5)n5ccnc(N)c45)cc3)c2)cn1 [Compound 27] |  | < 100 nM | 100 to 1000 nM
13 | Cc1ncc(COc2cc(F)cc(Oc3ccc(-c4nc(CCN5CCCC5)n5ccnc(N)c45)cc3)c2)cn1 [Compound 18] |  | < 100 nM | 100 to 1000 nM
14 | Cc1ncc(COc2cc(F)cc(Oc3ccc(-c4nc(C5CC(O)(CO)C5)n5ccnc(N)c45)cc3)c2)cn1 (stereo not shown) [Compound 19] |  | < 100 nM | < 100 nM
15 | Cc1ncc(COc2cc(F)cc(Oc3ccc(-c4nc(C5(C)COC5)n5ccnc(N)c45)cc3)c2)cn1 [Compound 12] |  | < 100 nM | < 100 nM
16 | Cc1ncc(COc2cc(F)cc(Oc3ccc(-c4nc(C(C)C)n5ccnc(N)c45)cc3)c2)s1 [Compound 1] |  | < 100 nM | < 100 nM
17 | Cc1ncc(COc2cc(F)cc(Oc3ccc(-c4nc(C5CC(=O)C5)n5ccnc(N)c45)cc3)c2)s1 [Compound 17] |  | < 100 nM | < 100 nM

The next lines start with results.

Row | EC50 [1] | Ki [3] | SMILES | EC50 [2]
18 |  | < 100 nM | CC(=O)N1CCC[C@@H](c2nc(-c3ccc(Oc4cc(F)cc(OCc5cnc(C)nc5)c4)cc3)c3c(N)nccn23)C1 [Compound 24] | < 100 nM
19 |  | < 100 nM | Cc1ncc(COc2cc(F)cc(Oc3ccc(-c4nc(C5CCCC5)n5ccnc(N)c45)cc3)c2)s1 [Compound 4] | < 100 nM
20 |  | < 100 nM | Cc1ncc(COc2cc(F)cc(Oc3ccc(-c4nc([C@H]5C[C@@](C)(O)C5)n5ccnc(N)c45)cc3)c2)cn1 [Compound 13] | < 100 nM
21 |  | < 100 nM | Cc1ccc(COc2cc(F)cc(Oc3ccc(-c4nc(C5CCOCC5)n5ccnc(N)c45)cc3)c2)cn1 [Compound 8] | < 100 nM
22 |  | < 100 nM | Cc1ncc(COc2cc(F)cc(Oc3ccc(-c4nc([C@H]5C[C@@H](N6CCN(C)CC6)C5)n5ccnc(N)c45)cc3)c2)s1 [Compound 20] | < 100 nM
23 |  | < 100 nM | Cc1ncc(COc2cc(F)cc(Oc3ccc(-c4nc(C5CCCC5)n5ccnc(N)c45)cc3)c2)cn1 [Compound 6] | < 100 nM
24 |  | < 100 nM | Cc1ncc(COc2cc(F)cc(Oc3ccc(-c4nc(C(C)C)n5ccnc(N)c45)cc3)c2)cn1 [Compound 2] | < 100 nM
25 |  | < 100 nM | Cc1ncc(COc2cc(F)cc(Oc3ccc(-c4nc([C@H]5C[C@@](C)(O)C5)n5ccnc(N)c45)cc3)c2)s1 [Compound 16] | < 100 nM
26 |  | < 100 nM | Cc1ncc(COc2cc(F)cc(Oc3ccc(-c4nc(C5CC5)n5ccnc(N)c45)cc3)c2)cn1 [Compound 11] | < 100 nM
27 |  | < 100 nM | Cc1ncc(COc2cc(F)cc(Oc3ccc(-c4nc(C5CC5)n5ccnc(N)c45)cc3)c2)s1 [Compound 10] | < 100 nM
28 |  | < 100 nM | Cc1ncc(COc2cc(F)cc(Oc3ccc(-c4nc(C5CCOCC5)n5ccnc(N)c45)cc3)c2)s1 [Compound 7] | < 100 nM
29 |  | < 100 nM | CC(=O)N1CC(c2nc(-c3ccc(Oc4cc(F)cc(OCc5cnc(C)nc5)c4)cc3)c3c(N)nccn23)C1 [Compound 26] | < 100 nM
30 |  | < 100 nM | Cc1ncc(COc2cc(F)cc(Oc3ccc(-c4nc(C5CC(=O)C5)n5ccnc(N)c45)cc3)c2)cn1 [Compound 21] | < 100 nM
31 |  | < 100 nM | Cc1ncc(COc2cc(F)cc(Oc3ccc(-c4nc(C5CC(O)(CO)C5)n5ccnc(N)c45)cc3)c2)s1 (stereo not shown) [Compound 14] | < 100 nM
32 |  | < 100 nM | Cc1ncc(COc2cc(F)cc(Oc3ccc(-c4nc([C@@H]5CCCNC5)n5ccnc(N)c45)cc3)c2)cn1 [Compound 22] | < 100 nM
